From patent US7776849B2, “Benzenoid ansamycin derivative” (Kyowa Hakko Kirin Co., Ltd., priority 2005, dated 2010)

Tests used:
[1] = target: T1, Human N-terminal recombinant Hsp90 protein (region of amino acids 9 to 236) (Homo sapiens, UniProt P07900); test: Hsp90 protein binding assay (competition with biotinylated Radicicol, time-resolved fluorescence); details: immobilized Hsp90, biotinylated Radicicol 0.1 μmol/L, 24° C.; read-out: concentration inhibiting the binding of biotinylated Radicicol to the Hsp90 protein by 50% or more
T1 construct: Human N-terminal recombinant Hsp90 protein (region of amino acids 9 to 236); made in house
Experimental: Hsp90 Protein Binding Assay
Human N-terminal recombinant Hsp90 protein (region of amino acids 9 to 236) prepared according to the method described in “Cell”, 1997, Vol. 89, p. 239-250 was diluted to 1 μg/mL with Tris-buffered saline (TBS, pH 7.5) and added to each well of a 96-well ELISA assay plate (Greiner) in an amount of 70 μL/well. The plate was incubated overnight at 4° C. to obtain the solid phase.
The supernatant was removed, and Tris-buffered saline containing 1% bovine serum albumin (BSA) was added in an amount of 350 μL/well for blocking.
After the blocking solution was removed, each resulting solid phase was washed by the addition of Tris-buffered saline containing 0.05% Tween 20 (TBST) in an amount of 350 μL/well. This washing procedure was repeated three times. […]
Enhancement solution (Wallac Oy) was added thereto in an amount of 100 μL/well and color developing reaction was carried out at room temperature for 5 minutes, followed by measurement of time-resolved fluorescence (excitation wavelength: 340 nm, measurement wavelength: 615 nm) using Multilabel Counter (ARVO 1420, Wallac Oy).
The binding rate in each well treated the test compound was calculated from the time-resolved fluorescence measured for each well based on the time-resolved fluorescence measured with the positive control taken as 100% binding rate and that with the negative control taken as 0% binding rate.

[2] = tested on: human chronic myelocytic leukemia K562 cells; test: Growth inhibition test on human chronic myelocytic leukemia K562 cells (WST-1); assay type: cell-based; details: 72 hours, read-out: 50% growth inhibitory concentration (GI50)
Experimental: Growth Inhibition Test on Human Chronic Myelocytic Leukemia K562 Cells
First, 1,500 cells of human chronic myelocytic leukemia K562 were inoculated into each well of a 96-well microplate (manufactured by Nunc Corp.), and using RPMI1640 medium containing 10% fetal calf serum (FCS), preculturing was performed in a 5% carbon dioxide incubator at 37° C. for 5 hours. A DMSO solution of each test compound prepared in a concentration of 10 mmol/L was stepwise diluted with the culture medium and added thereto in a total amount of 100 μL/well. The resulting wells were further cultured in the 5% carbon dioxide incubator at 37° C. for 72 hours. […] Using a microplate spectrophotometer (SpectraMax 340PC384; manufactured by Molecular Devices), the absorbance of each well was measured at 450 nm and 655 nm. […] The value obtained by subtracting the absorbance at 655 nm from the absorbance at 450 nm (absorbance difference) was calculated for each well. The absorbance difference obtained from cells untreated with any of the test compounds was designated as 100%. The absorbance difference obtained from cells treated with the compounds at the test concentrations was compared. […]

| IC50 [1] [µM] | GI50 [2] [µM] | SMILES |
| --- | --- | --- |
| ≤ 10 | – | COC1/C=C\C=C(/C)C(=O)Nc2cc(O)cc(c2O)C(OC)C(C)CC(OC)C(OC)C(C)/C=C(\C)C1OC(N)=O (stereo not drawn) [Compound 1] |
| ≤ 10 | ≤ 10 | COC1C=CC=C(C)C(=O)Nc2cccc(c2O)C(OC)C(C)CC(OC)C(OC)C(C)C=C(C)C1OC(N)=O (stereo not drawn) [Compound 2] |
